This is an account of results in US12612368B2 (Remedy Plan, Inc., priority 2019, dated 2026).

In assay [1] the test system is MV-4-11 cells. Briefly: Cell viability in MV-4-11 cells (CellTiter Glo2). As to conditions: Homo sapiens, MV4-11, 96 h, 8-point dose response, 4 days. Format: cell-based. For orientation: In ATP-based viability assays light output follows the ATP content of the culture.
Protocol: Approximately 10,000 MV-4-11 cells per well of a 96-well plate were treated with DMSO (no drug control) or each compound in Tables E1 and E2 in an 8-point dose response for 4 days, Cell viability was measured using CellTiter Glo2. The ICse of each compound was determined using CDD Vault.
The target in assay [2] is T1, NAMPT (Homo sapiens, UniProt P43490).
T1 construct: purchased Abcam ab221819
Briefly: NAMPT Activity Assay (Abcam #ab221819). Format: biochemical. As to conditions: purified NAMPT, two-step reaction, OD450 nm; percent inhibition vs no drug; compound concentration not stated.

Setting [3] is: CellTiter Glo2 (Table E1), read-out: MV-4-11 IC50.

The structures appear in SMILES notation. Where two headings read alike, the source gives them in different places. Bounds are passed on as bounds.

T1 sequence (P43490 whole entry): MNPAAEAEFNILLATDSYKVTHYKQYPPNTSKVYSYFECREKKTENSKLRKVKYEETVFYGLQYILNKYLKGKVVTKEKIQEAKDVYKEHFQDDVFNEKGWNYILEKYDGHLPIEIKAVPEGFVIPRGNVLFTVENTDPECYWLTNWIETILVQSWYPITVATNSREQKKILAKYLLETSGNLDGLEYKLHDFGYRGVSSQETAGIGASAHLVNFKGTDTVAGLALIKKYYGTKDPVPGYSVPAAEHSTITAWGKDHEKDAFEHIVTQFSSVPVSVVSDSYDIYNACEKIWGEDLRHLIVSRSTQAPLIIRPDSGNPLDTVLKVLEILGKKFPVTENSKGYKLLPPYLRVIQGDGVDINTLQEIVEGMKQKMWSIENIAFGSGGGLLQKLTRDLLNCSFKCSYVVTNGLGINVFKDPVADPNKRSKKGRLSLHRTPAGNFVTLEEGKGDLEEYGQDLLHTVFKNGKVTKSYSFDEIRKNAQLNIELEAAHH

One may read the IC50 as the concentration that inhibits the measured activity by half. For the compound `CC(=O)N(C)Cc1ccc(-c2ccc(C(=O)NCc3cccnc3)nc2)cc1` [Compound I-319, 5-[4-[[acetyl(methyl)amino]methyl]phenyl]-N-(3-pyridylmethyl)pyridine-2-carboxamide], the IC50 in assay [1] (setting [3]) came out at 10 µM.

Regarding `CCOC(=O)N(C)c1ccc(-c2ccc(C(=O)NCc3cccnc3)nc2)cc1` [Compound I-330, ethyl N-methyl-N-[4-[6-(3-pyridylmethylcarbamoyl)-3-pyridyl]phenyl]carbamate], in assay [2], the “NAMPT Inhibition Code” value is “A (A = <33% inhibition)”. Besides, the IC50 in assay [1] (setting [3]) was 6.08 µM.

Consider `CCC(=O)N(C)c1ccc(-c2ccc(C(=O)NCc3cccnc3)cn2)cc1` [Compound I-331, 6-[4-[Methyl(propanoyl)amino]phenyl]-N-(3-pyridylmethyl)pyridine-3-carboxamide], for which the “NAMPT Inhibition Code” value in assay [2] is given as “A (A = <33% inhibition)”. Also, the IC50 in assay [1] (CellTiter Glo2 (Table E2), read-out: MV-4-11 Cell Viability, MV-4-11 IC50) stood at 0.436 µM.

As for `CCC(=O)N(C)c1ccc(-c2ccc(C(=O)Nc3cccnc3)cn2)cc1` [Compound I-353, 6-[4-[methyl(propanoyl)amino]phenyl]-N-(3-pyridyl)pyridine-3-carboxamide], the “NAMPT Inhibition Code” value in assay [2] is reported as “C (C = ≥66% inhibition)”. For the same compound, the IC50 in assay [1] (setting [3]) is 0.941 µM.

As for `CCC(=O)Nc1ccc(-c2ccc(C(=O)NCc3cccnc3)cn2)cc1` [Compound I-354, 6-[4-(propanoylamino)phenyl]-N-(3-pyridylmethyl)pyridine-3-carboxamide], the “NAMPT Inhibition Code” value in assay [2] is reported as “A (A = <33% inhibition)”. In addition, the IC50 in assay [1] (setting [3]) is more than 30 µM.

Take `CCC(=O)N(C)c1ccc(-c2ccc(C(=O)Nc3nc(C)cs3)cn2)cc1` [Compound I-355, 6-[4-[methyl(propanoyl)amino]phenyl]-N-(4-methylthiazol-2-yl)pyridine-3-carboxamide]: the “NAMPT Inhibition Code” value in assay [2] was “A (A = <33% inhibition)”. Further, the half-maximal inhibitory concentration (IC50) in assay [1] (setting [3]) came to 2.91 µM.

For `CCOC(=O)N(C)c1ccc(-c2ccc(C(=O)NCc3cccnc3)cn2)cc1` [Compound I-389, ethyl N-methyl-N-[4-[5-(3-pyridylmethylcarbamoyl)-2-pyridyl]phenyl]carbamate], the “NAMPT Inhibition Code” value in assay [2] was “A (A = <33% inhibition)”. Besides, in assay [1] (setting [3]), the IC50 came to 3.17 µM.

Consider `CCC(=O)N(C)c1ccc(-c2ccc(C(=O)NCc3ccc(F)nc3C)cn2)cc1` [Compound I-390, N-[(6-fluoro-2-methyl-3-pyridyl)methyl]-6-[4-[methyl(propanoyl)amino]phenyl]pyridine-3-carboxamide], for which the “NAMPT Inhibition Code” value in assay [2] is “A (A = <33% inhibition)”. For the same compound, the concentration for half-maximal inhibition (IC50) in assay [1] (setting [3]) is 4.26 µM.

For the compound `CCC(=O)N(C)c1ccc(-c2ccc(C(=O)NCc3cccnc3C)cn2)cc1` [Compound I-392, 6-[4-[methyl(propanoyl)amino]phenyl]-N-[(2-methyl-3-pyridyl)methyl]pyridine-3-carboxamide], in assay [2], the “NAMPT Inhibition Code” value is on record as “A (A = <33% inhibition)”. The IC50 in assay [1] (setting [3]) stood at 6.23 µM.

As for `CCC(=O)N(C)c1ccc(-c2ccc(C(=O)NCc3ccc(F)nc3)cn2)cc1` [Compound I-393, N-[(6-fluoro-3-pyridyl)methyl]-6-[4-[methyl(propanoyl)amino]phenyl]pyridine-3-carboxamide], the “NAMPT Inhibition Code” value in assay [2] is “A (A = <33% inhibition)”. In addition, in assay [1] (setting [3]), the IC50 was more than 30 µM.

As to `CCC(=O)N(C)c1ccc(-c2ccc(C(=O)NCc3ccc(C)nc3C)cn2)cc1` [Compound I-394, N-[(2,6-dimethyl-3-pyridyl)methyl]-6-[4-[methyl(propanoyl)amino]phenyl]pyridine-3-carboxamide], the “NAMPT Inhibition Code” value in assay [2] is recorded as “A (A = <33% inhibition)”. Also, the half-maximal inhibitory concentration (IC50) in assay [1] (setting [3]) was found to be 3.52 µM.

On to `CCC(=O)N(C)c1ccc(-c2ccc(C(=O)NCc3cccnc3Cl)cn2)cc1` [Compound I-395, N-[(2-chloro-3-pyridyl)methyl]-6-[4-[methyl(propanoyl)amino]phenyl]pyridine-3-carboxamide], for which the “NAMPT Inhibition Code” value in assay [2] is “A (A = <33% inhibition)”. Further, the concentration for half-maximal inhibition (IC50) in assay [1] (setting [3]) is 6.11 µM.

Consider `CCC(=O)N(C)c1ccc(-c2ccc(C(=O)NCc3ccc(Cl)nc3)cn2)cc1` [Compound I-396, N-[(6-chloro-3-pyridyl)methyl]-6-[4-[methyl(propanoyl)amino]phenyl]pyridine-3-carboxamide], for which the “NAMPT Inhibition Code” value in assay [2] is “C (C = ≥66% inhibition)”. For the same compound, in assay [1] (setting [3]), the IC50 was determined as 6.56 µM.

Take `CCC(=O)N(C)c1ccc(-c2ccc(C(=O)NCc3ccc(OC)nc3)cn2)cc1` [Compound I-397, N-[(6-methoxy-3-pyridyl)methyl]-6-[4-[methyl(propanoyl)amino]phenyl]pyridine-3-carboxamide]: the “NAMPT Inhibition Code” value in assay [2] is reported as “B (B = ≥33 to <66% inhibition)”. For the same compound, the IC50 in assay [1] (setting [3]) came to 13.8 µM.

On to `CC(=O)N(CC(C)C)c1ccc(-c2ccc(C(=O)NCc3cccnc3)cc2)cc1` [Compound I-402, 4-[4-[acetyl(isobutyl)amino]phenyl]-N-(3-pyridylmethyl)benzamide], for which, in assay [2], the “NAMPT Inhibition Code” value is “C (C = ≥66% inhibition)”. The IC50 in assay [1] (setting [3]) is 0.0587 µM.

As to `CCC(=O)N(CC(C)C)c1ccc(-c2ccc(C(=O)NCc3cccnc3)cn2)cc1` [Compound I-403, 6-[4-[isobutyl(propanoyl)amino]phenyl]-N-(3-pyridylmethyl)pyridine-3-carboxamide], in assay [2], the “NAMPT Inhibition Code” value is recorded as “C (C = ≥66% inhibition)”. Also, the IC50 in assay [1] (setting [3]) is less than 0.0117 µM.

`CC(=O)N(CC(C)C)c1ccc(-c2ccc(C(=O)NCc3cccnc3)cn2)cc1` [Compound I-404]: the “NAMPT Inhibition Code” value in assay [2] is on record as “B (B = ≥33 to <66% inhibition)”. Besides, the IC50 in assay [1] (setting [3]) is 0.032 µM.

For `CC(C)CN(CC(C)C)c1ccc(-c2ccc(C(=O)NCc3cccnc3)cc2)cc1` [Compound I-406, 4-[4-(diisobutylamino)phenyl]-N-(3-pyridylmethyl)benzamide], the “NAMPT Inhibition Code” value in assay [2] was “B (B = ≥33 to <66% inhibition)”. In addition, in assay [1] (setting [3]), the IC50 amounted to 0.817 µM.

Turning to `CCCN(C(=O)CC)c1ccc(-c2ccc(C(=O)NCc3cccnc3)cn2)cc1` [Compound I-410, 6-[4-[propanoyl(propyl)amino]phenyl]-N-(3-pyridylmethyl)pyridine-3-carboxamide], the “NAMPT Inhibition Code” value in assay [2] is reported as “B (B = ≥33 to <66% inhibition)”. The IC50 in assay [1] (setting [3]) was 0.119 µM.

As for `CCCCN(C(C)=O)c1ccc(-c2ccc(C(=O)NCc3cccnc3)cn2)cc1` [Compound I-411, 6-[4-[acetyl(butyl)amino]phenyl]-N-(3-pyridylmethyl)pyridine-3-carboxamide], in assay [2], the “NAMPT Inhibition Code” value is reported as “B (B = ≥33 to <66% inhibition)”. Further, the half-inhibitory concentration (IC50) in assay [1] (setting [3]) is 0.125 µM.

On to `CC(=O)N(CC1CC(F)(F)C1)c1ccc(-c2ccc(C(=O)NCc3cccnc3)cn2)cc1` [Compound I-412, 6-[4-[acetyl-[(3,3-difluorocyclobutyl)methyl]amino]phenyl]-N-(3-pyridylmethyl)pyridine-3-carboxamide], for which the “NAMPT Inhibition Code” value in assay [2] is given as “B (B = ≥33 to <66% inhibition)”. Further, in assay [1] (setting [3]), the IC50 turned out to be 0.0825 µM.

As to `CCC(=O)N(CCNC(=O)OC(C)(C)C)c1ccc(-c2ccc(C(=O)NCc3cccnc3)cc2)cc1` [Compound I-417, tert-butyl N-[2-[N-propanoyl-4-[4-(3-pyridylmethylcarbamoyl)phenyl]anilino]ethyl]carbamate], the “NAMPT Inhibition Code” value in assay [2] is on record as “A (A = <33% inhibition)”. In assay [1] (setting [3]), the IC50 was 0.105 µM.

Take `CC(=O)N(CC1CC1)c1ccc(-c2ccc(C(=O)NCc3cccnc3)cn2)cc1` [Compound I-421, 6-[4-[acetyl(cyclopropylmethyl)amino]phenyl]-N-(3-pyridylmethyl)pyridine-3-carboxamide]: in assay [2], the “NAMPT Inhibition Code” value is given as “B (B = ≥33 to <66% inhibition)”. Besides, the IC50 in assay [1] (setting [3]) was determined as 0.117 µM.

With `CC(=O)N(C)c1ccc(-c2ccc(C(=O)NCc3cccnc3)cn2)cc1C` [Compound I-425, 6-[4-[acetyl(methyl)amino]-3-methyl-phenyl]-N-(3-pyridylmethyl)pyridine-3-carboxamide], in assay [2], the “NAMPT Inhibition Code” value was “A (A = <33% inhibition)”. For the same compound, the IC50 in assay [1] (setting [3]) amounted to 1.67 µM.

On to `CC(=O)N(C)c1ccc(-c2ccc(C(=O)NCc3cccnc3C)cn2)cc1C` [Compound I-428, 6-[4-[acetyl(methyl)amino]-3-methyl-phenyl]-N-[(2-methyl-3-pyridyl)methyl]pyridine-3-carboxamide], for which, in assay [1] (setting [3]), the IC50 turned out to be 3.46 µM.

Take `CCN(C(C)=O)c1ccc(-c2ccc(C(=O)NCc3cccnc3C)cn2)cc1C` [Compound I-429, 6-[4-[acetyl(ethyl)amino]-3-methyl-phenyl]-N-[(2-methyl-3-pyridyl)methyl]pyridine-3-carboxamide]: the IC50 in assay [1] (setting [3]) stood at 4.03 µM.

Consider `CC(=O)N(C)c1ccc(-c2ccc(C(=O)NCc3cccnc3F)cn2)cc1C` [Compound I-436, 6-[4-[acetyl(methyl)amino]-3-methyl-phenyl]-N-[(2-fluoro-3-pyridyl)methyl]pyridine-3-carboxamide], for which the concentration for half-maximal inhibition (IC50) in assay [1] (setting [3]) stood at 13.8 µM.

Regarding `CC(=O)N(CC1CC1)c1ccc(-c2ccc(C(=O)Nc3cnc4[nH]ncc4c3)cn2)cc1Cl` [Compound I-693, 6-[4-[Acetyl(cyclopropylmethyl)amino]-3-chloro-phenyl]-N-(1H-pyrazolo[3,4-b]pyridin-5-yl)pyridine-3-carboxamide], the “NAMPT Inhibition Code” value in assay [2] is recorded as “B (B = ≥33 to <66% inhibition)”.

On to `CC(=O)N(CC1CC1)c1ccc(-c2ccc(C(=O)NCc3ccc(F)nc3)cn2)cc1Cl` [Compound I-696, 6-[4-[Acetyl(cyclopropylmethyl)amino]-3-chloro-phenyl]-N-[(6-fluoro-3-pyridyl)methyl]pyridine-3-carboxamide], for which the “NAMPT Inhibition Code” value in assay [2] is listed as “C (C = ≥66% inhibition)”.

As to `CC(=O)N(CC1CC1)c1ccc(-c2ccc(C(=O)NCc3ccc(C)nc3)cn2)cc1Cl` [Compound I-697, 6-[4-[Acetyl(cyclopropylmethyl)amino]-3-chloro-phenyl]-N-[(6-methyl-3-pyridyl)methyl]pyridine-3-carboxamide], the “NAMPT Inhibition Code” value in assay [2] is “C (C = ≥66% inhibition)”.

`CC(=O)N(CC1CC1)c1ccc(-c2ccc(C(=O)NCc3ccccn3)cn2)cc1Cl` [Compound I-698, 6-[4-[Acetyl(cyclopropylmethyl)amino]-3-chloro-phenyl]-N-(2-pyridylmethyl)pyridine-3-carboxamide]: the “NAMPT Inhibition Code” value in assay [2] is reported as “A (A = <33% inhibition)”.
